Measurements: PMC10584170, “Machine learning-based phenotypic imaging to characterise the targetable biology of Plasmodium falciparum male gametocytes for the development of transmission-blocking antimalarials” (PLOS Pathogens, 2023)
Read-outs that look alike come from different tables or passages of the source.

Key:
[1] = test system: P. falciparum female gametocytes; assay: P. falciparum Dual Gamete Formation Assay (PfDGFA), female readout (Pfs25-positive female gametes); assay type: cell-based, Plasmodium falciparum NF54; conditions: for Selectivity ratio F: HepG2 Tox50 versus female IC50; for inhibition at 2 µM / IC50: Plasmodium falciparum; for inhibition at 2 µM: 24h preincubation with gametocytes; for IC50: PfDGFA, 24 h incubation with gametocytes before induction, female gamete readout, read-out: Female IC50; for HitlevelF: number of replicates with >50% inhibition in the female readout
Summary of the method: (§1)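 Two sex-specific readouts come from one well: male exflagellation centres recorded by brightfield video right after activation, and female gametes scored by Cy3-anti-Pfs25 fluorescence after 24 h at 28°C.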

[2] = test system: P. falciparum male gametocytes; assay: P. falciparum Dual Gamete Formation Assay (PfDGFA), male readout (exflagellation); assay type: cell-based, Plasmodium falciparum NF54; conditions: for Selectivity Ratio M: HepG2 Tox50 versus male IC50; for inhibition at 2 µM: 24h preincubation with gametocytes; for HitlevelM: number of replicates with >50% inhibition in the male readout
Summary of the method: as §1

[3] = test system: HepG2 cells; assay: HepG2 cytotoxicity counter-screen; conditions: for Tox50: cytotoxic activity against HepG2 cells
[4] = 2µM, average of replicates, read-out: Average inhibition female (%)
[5] = 2µM, replicate R1, read-out: % inhibition female (individual replicates) R1
[6] = 2µM, replicate R2, read-out: % inhibition female (individual replicates) R2
[7] = 2µM, replicate R3, read-out: % inhibition female (individual replicates) R3
[8] = 2µM, replicate R4, read-out: % inhibition female (individual replicates) R4
[9] = Plasmodium falciparum, 2µM, average of replicates, read-out: Average inhibition male (%)
[10] = Plasmodium falciparum, 2µM, replicate R1, read-out: % inhibition male (individual replicates) R1
[11] = Plasmodium falciparum, 2µM, replicate R2, read-out: % inhibition male (individual replicates) R2
[12] = Plasmodium falciparum, 2µM, replicate R3, read-out: % inhibition male (individual replicates) R3
[13] = Plasmodium falciparum, 2µM, replicate R4, read-out: % inhibition male (individual replicates) R4
[14] = Plasmodium falciparum, PfDGFA, 24 h incubation with gametocytes before induction, exflagellation readout, read-out: Male IC50
[15] = 2µM, 24h preincubation with gametocytes prior to induction of gametogenesis, average of replicates
[16] = 2µM, 24h preincubation with gametocytes prior to induction of gametogenesis, replicate R1
[17] = 2µM, 24h preincubation with gametocytes prior to induction of gametogenesis, replicate R3
[18] = 2µM, 24h preincubation with gametocytes prior to induction of gametogenesis, replicate R4

Row | Structure (SMILES) | Selectivity ratio F [1] | inhibition at 2 µM [1, 4] | inhibition at 2 µM [1, 5] | inhibition at 2 µM [1, 6] | inhibition at 2 µM [1, 7] | inhibition at 2 µM [1, 8] | IC50 [1] | Selectivity Ratio M [2] | inhibition at 2 µM [2, 9] | inhibition at 2 µM [2, 10] | inhibition at 2 µM [2, 11] | inhibition at 2 µM [2, 12] | inhibition at 2 µM [2, 13] | IC50 [2, 14] | Tox50 [3] | further results
1 | COCCCNC(=S)NN=C(C)c1ccccn1 [TCMDC-137907] | 1.2 | 95.6% | 95.7% | 91.5% | 100% | 94.6% | 400 nM | 1.14 | 100% | 99.7% | 100% | 97.8% | 103% | 420 nM | 0.48 µM | 
2 | CS(=O)(=O)Cc1ccc(Nc2ncc(Cl)c(Nc3cccnc3C(N)=O)n2)cc1.Cl [TC68] |  |  |  |  |  |  |  |  |  |  |  |  |  |  |  | Cytotox ratio Pf Female [1]: 10.0; Cytotox ratio Pf Male [2]: 16.0; IC50 ([2]; this study, read-out: Pf DGFA IC50 MALE): 6250 nM; DGFA Tox50 HepG2 ([3]; HepG2 value reported with the DGFA screen): 100 µM; Mean TOX ([3]; mean of the HepG2 TOX50 values): 100.00 µM
3 | O=C(Nc1cccc(-c2nn3ncccc3c2-c2ccnc(Nc3cccc(-c4cnco4)c3)n2)c1)c1c(F)cccc1F [TCMDC-135550] | 0.18 |  |  |  |  |  |  | 4.7 |  |  |  |  |  |  | 1.85 µM | Average inhibition female (%) [1, 15]: -4.1%; % inhibition female (individual replicates) R1 [1, 16]: -3.8%; % inhibition female (individual replicates) R3 [1, 17]: -14.6%; % inhibition female (individual replicates) R4 [1, 18]: 0.16%; HitlevelF ([1]; 2µM, 24h preincubation): 0; Average inhibition male (%) [2, 15]: 55.8%; % inhibition male (individual replicates) R1 [2, 16]: 81.6%; % inhibition male (individual replicates) R3 [2, 17]: 54.6%; % inhibition male (individual replicates) R4 [2, 18]: 6.2%; HitlevelM ([2]; 2µM, 24h preincubation): 3; IC50 ([2]; PfDGFA, 24 h incubation with gametocytes before induction, exflagellation readout, read-out: Male IC50): 390 nM
4 | O=C(O)C(F)(F)F.O=c1[nH]ccc2nc(N[C@@H]3CCCNC3)nc(Nc3ccc(S(=O)(=O)N4CCOCC4)cc3)c12 [TCMDC-135038] | 2.68 | 14.1% | 2.2% | 10.6% | 4.3% | 39.1% | 8170 nM | 342.32 | 97.4% | 93.1% | 99.1% | 99.2% | 98.2% | 60 nM | 21.89 µM | 
5 | COc1cccc(C23NC(=Nc4nc5ccccc5[nH]4)NC2(c2cccc(OC)c2)NC(=Nc2nc4ccccc4[nH]2)N3)c1 (stereo not drawn) [TCMDC-139087] | 24.94 |  |  |  |  |  | 1300 nM | 17.52 |  |  |  |  |  | 1850 nM | 32.37 µM | inhibition at 2 µM ([1]; PfDGFA at 2µM, average of replicates, read-out: Average inhibition female (%)): 28.9%; inhibition at 2 µM ([1]; PfDGFA at 2µM, replicate R1, read-out: % inhibition female (individual replicates) R1): 18.4%; inhibition at 2 µM ([1]; PfDGFA at 2µM, replicate R2, read-out: % inhibition female (individual replicates) R2): 40.4%; inhibition at 2 µM ([1]; PfDGFA at 2µM, replicate R3, read-out: % inhibition female (individual replicates) R3): 9.2%; inhibition at 2 µM ([1]; PfDGFA at 2µM, replicate R4, read-out: % inhibition female (individual replicates) R4): 47.7%; HitlevelF ([1]; 2µM): 0; inhibition at 2 µM ([2]; Plasmodium falciparum, PfDGFA at 2µM, average of replicates, read-out: Average inhibition male (%)): 78.4%; inhibition at 2 µM ([2]; Plasmodium falciparum, PfDGFA at 2µM, replicate R1, read-out: % inhibition male (individual replicates) R1): 83%; inhibition at 2 µM ([2]; Plasmodium falciparum, PfDGFA at 2µM, replicate R2, read-out: % inhibition male (individual replicates) R2): 72.6%; inhibition at 2 µM ([2]; Plasmodium falciparum, PfDGFA at 2µM, replicate R3, read-out: % inhibition male (individual replicates) R3): 79%; inhibition at 2 µM ([2]; Plasmodium falciparum, PfDGFA at 2µM, replicate R4, read-out: % inhibition male (individual replicates) R4): 78.9%; HitlevelM ([2]; 2µM): 4
6 | CCN(CC)CCN(Cc1ccc(-c2ccc(C(F)(F)F)cc2)cc1)C(=O)Cn1cc(Cc2cnn(C)c2)c(=O)nc1/C=C/c1ccc(F)cc1.O=C(O)C(O)C(O)C(=O)O [TCMDC-140741] | 2.29 | 44.8% | 41.2% | 41.2% | 34.9% | 61.9% | 7160 nM | 19.3 | 90.1% | 92.2% | 91.9% | 76% | 100% | 850 nM | 16.37 µM | 
